From patent publication US12146886B2, “Methods for detecting and treating endometriosis” (The Feinstein Institutes for Medical Research, priority 2018, dated 2024)

Columns and labels:
ME-SFCs [1] = assay: Long-term study: transient cytokine exposure of ME-SFCs, decidualization 25 days after final treatment (IGFBP-1 ELISA); format: cell-based, human; details: for SFC decidualization capacity after transient exposure: FIG. 4A-4B
Procedure: (§1) In vitro exposure of ME-SFCs to inflammatory cytokines (e.g. TNFα) reduces decidualization capacity. […] After 24 hrs, culture supernatants were collected and IGFBP-1 protein levels were measured by ELISA. […] Twenty four hours later, the culture supernatants were collected and IGFBP-1 protein levels were measured by ELISA.

ME-SFCs [2] = assay: Acute exposure of ME-SFCs to inflammatory cytokines, then cAMP decidualization (IGFBP-1 ELISA); format: cell-based, human; details: TNFα 1 pg/ml-10 ng/ml; SFCs from a normal subject; 24 hours; cAMP 0.5 mM
Procedure: as §1

IL-1β: inflammatory cytokine
SFC decidualization capacity after transient exposure (ME-SFCs [1]): persistent defects

TNFα
cell viability (SFCs): not affected
persistence of decidualization defects (reduced IGFBP1 production) after removal from culture (ME-SFCs [1]; TNFα 0.1-1.0 ng/ml on days 0 and 5, decidualization with cAMP alone or cAMP and medroxyprogesterone): at least 25 days
SFC decidualization capacity after transient exposure (ME-SFCs [1]): persistent defects
decidualization capacity of SFCs (ME-SFCs [2]): dramatically reduces decidualization capacity
